How the values were obtained:
[1] = test system: myotubes differentiated from C2C12 cells; test: Mitochondrial calcium measurement with mitochondrially targeted aequorin, caffeine stimulation; format: cell-based; conditions: NAD+-containing myotubes; Oea 10 μM, NR 0.5 mM; n=6
Description: C2C12 cells were purchased from ATCC. C2C12 cells were seeded in 96-well plates at a density of 15 000 cells per well in DMEM high glucose (Gibco)+10% fetal calf serum. Myotubes were differentiated from C2C12 cells by growing the cells in DMEM containing 2% horse serum, for 6 days. Mitochondrial calcium measurements were carried out using myotubes infected with the adenovirus (from Sirion biotech) expressing the mitochondrially targeted calcium sensor mitochondrial mutated aequorin (Montero et al., 2004). For aequorin reconstitution, 48 hours after infection, cells or myotubes were incubated for 2 h at room temperature (22±° C.) in standard medium (145 mM NaCl, 5 mM KCl, 1 mM MgCl2, 1 mM CaCl2, 10 mM glucose and 10 mM Hepes, pH 7.4) with 1 μM wild-type coelenterazine. Myotubes were stimulated with 5 mM of caffeine and the total calcium transition during stimulation was calculated as the area under the curve. […] Luminescence was measured at the Cytation 3 cell imaging reader (Biotek). Calibration of the luminescence data into Calcium concentration was carried out using an algorithm as described previously (Alvarez & Montero, 2002). Custom module analysis based on Excel (Microsoft) and GraphPad Prism 7.02 (GraphPad) software was used for quantification.

[2] = test system: C. elegans; test: C. elegans lifespan test; format: in vivo, Caenorhabditis elegans; conditions: treated from day 1 of adulthood; NR 100 μM, Oae 200 μM, wild type N2 worms
Description: C. elegans lifespan tests were performed using about 100 animals per condition and scored manually every other day. The experimental measurements of the effect of nicotinamide riboside, oleuropein aglycone, and the combination NR+Oae treatment were started at day 1 of wild type N2 worm adulthood, in a regimen of chronic exposure till experiments termination.

[3] = test system: myotubes differentiated from C2C12 cells; test: NAD+ measurement (NAD/NADH Quantification Kit); format: cell-based; conditions: NAD+-depleted myotubes; NR 0.5 mM, Oea 10 μM; n=6
Description: C2C12 cells were purchased from ATCC. C2C12 cells were seeded in 96-well plates at a density of 15 000 cells per well in DMEM high glucose (Gibco)+10% fetal calf serum. Myotubes were differentiated from C2C12 cells by growing the cells in DMEM containing 2% horse serum, for 6 days.
To obtain a condition of restrictions of NAD bioavailability, C2C12-derived myotubes were treated with 1 μM of FK866, an NAMPT inhibitor, for 3 days before experiment. Luminescence was measured at the Cytation 3 cell imaging reader (Biotek). Calibration of the luminescence data into Calcium concentration was carried out using an algorithm as described previously (Alvarez & Montero, 2002). Custom module analysis based on Excel (Microsoft) and GraphPad Prism 7.02 (GraphPad) software was used for quantification.
NAD^+ measurements were carried out using myotubes treated as previous described and quantifying with NAD/NADH Quantification Kit (Sigma-Aldrich).

## NC(=O)c1ccc[n+]([C@@H]2O[C@H](CO)[C@@H](O)[C@H]2O)c1 [Nicotinamide riboside, nicotinamide riboside]
[1]
  integrated mitochondrial calcium rise, evoked by 5 mM caffeine: does not boost mitochondrial Ca^2+ rise
[2]
  mean lifespan extension: 5%

## C/C=C1/C(O)OC=C(C(=O)OC)[C@H]1CC(=O)OCCc1ccc(O)c(O)c1 (mixture of isomers) [Oleuropein aglycone, oleuropein aglycone]
[1]
  integrated mitochondrial calcium rise, evoked by 5 mM caffeine: activates mitochondria via mitochondrial Ca^2+ rise
[3]
  NAD production: does not boosts NAD production
[2]
  mean lifespan extension: 10%
